According to patent US10538497B2, “Compounds as indoleamine 2,3-dioxygenase inhibitors” (Merck Sharp & Dohme Corp., priority 2015, dated 2020):

Columns and labels:
IDO1 [1] = biological target: T1, IDO1 (Homo sapiens (Human), UniProt P14902); assay: IDO1 Enzyme Assay; conditions: HIS-tagged recombinant IDO1, 40 nM
IDO1 [2] = biological target: T1, IDO1; assay: IDO1 Cellular Assay in Frozen HEK293 Cells Transiently Transfected with Human IDO1; type: cell-based; conditions: read-out: IDO1 HEK293 Cell Assay, IC50
Experimental: IDO1 Cellular Assay in Frozen HEK293 Cells Transiently Transfected with Human IDO1
HEK293 cells were cultured in complete HEK293 culture medium (90% DMEM, 10% heat-inactivated fetal bovine serum). When reaching sub-confluent, the cells were trypsinized and neutralized with complete medium. […] Flag-IDO1 plasmid was added to the cell suspension at a concentration of 100 μg/mL. The cell-plasmid solutions were transferred to the OC-400 processing assembly (Maxcyte), 400 l/unit and the units were placed in a Maxcyte instrument to carry out flow electroporation for transfection. The cells were then transferred to a sterile 24-well cell culture plate to recover for 20-30 min at 37° C. in an incubator with 5% CO2.
Frozen HEK293/IDO1 and HEK293 WT cells were thawed and transferred into HEK293 assay medium (99% complete HEK293 culture medium, 1% Pen/Strep) with 20 mL medium/vial of cells. The cells were spun down at 250 g in a table top centrifuge for 5 min and suspended in same volume of HEK293 assay medium. […] Sterile L-tryptophan were added to the cells with final concentration of 300 μM.
(§1) HEK293/IDO1 and HEK293 WT cells were dispensed to the respective wells of 384-well assay plates containing the compounds. The plates were incubated for about 28-30 h at a 37° C., 5% CO2 incubator. […] The plates were centrifuged for 1 min at 200×g. The resulting fluorescence was measured in a Spectramax plate reader (Molecular Devices) with a 400 nm excitation filter and a 510 nm emission filter.

IDO1 [3] = biological target: T1, IDO1; assay: IDO1 Cellular Assay in Hela Cells Stimulated with IFNγ; type: cell-based; conditions: Hela cells stimulated with IFNγ 100 ng/mL; read-out: IDO1 HELA Cell Assay, IC50
Experimental: IDO1 Cellular Assay in Hela Cells Stimulated with IFNγ
Hela cells were cultured in complete Hela culture medium (90% EMEM, 10% heat-inactivated fetal bovine serum) and expanded to about 1×10^9 cells. The cells were then collected and frozen down at 10×10^6 cells/vial in 1 mL frozen medium (90% complete Hela culture medium, 10% DMSO)
Frozen Hela cells were thawed and transferred into Hela assay medium (99% complete Hela culture medium, 1% Pen/Strep) with 20 mL medium/vial of cells. The cells were spun down at 250 g in a table top centrifuge for 5 min and suspended in same volume of Hela assay medium. The cells were then counted and adjusted to a density of 2×10^5 cells/ml in Hela assay medium. Sterile L-tryptophan were added to the cells with final concentration of 300 uM L-tryptophan. A small aliquot (2 mL/plate) of Hela cells were set aside and were not treated with IFNγ, to serve as the Max-E control. The rest of Hela cells were added with sterile IFNγ (Cat #285-IF, R & D systems) with a final concentration of 100 ng/mL.
as §1, with “Hela cells with” for “HEK293/IDO1”, “without IFNγ” for “HEK293 WT cells”, “48 hours” for “28-30 h”

[4] = read-out: IDO1 Enzyme Assay, IC50
[5] = HEK293 cells transiently transfected with human IDO1

T1 sequence (P14902 whole entry): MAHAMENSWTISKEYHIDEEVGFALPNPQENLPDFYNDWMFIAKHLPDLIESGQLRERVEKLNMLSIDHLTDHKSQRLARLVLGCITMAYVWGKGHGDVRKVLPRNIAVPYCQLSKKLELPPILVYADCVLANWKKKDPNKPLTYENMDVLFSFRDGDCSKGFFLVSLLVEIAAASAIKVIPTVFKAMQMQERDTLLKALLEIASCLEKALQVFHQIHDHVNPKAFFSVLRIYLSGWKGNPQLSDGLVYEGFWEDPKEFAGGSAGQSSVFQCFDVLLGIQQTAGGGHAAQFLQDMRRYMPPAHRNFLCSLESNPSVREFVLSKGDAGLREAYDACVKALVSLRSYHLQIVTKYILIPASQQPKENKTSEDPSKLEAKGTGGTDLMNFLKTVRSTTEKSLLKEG

SMILES	IC50 (IDO1 [1]; [4])	IC50 (IDO1 [2]; [5])	IC50 (IDO1 [3])	IC50 (IDO1 [1]; IDO1 Enzyme Assay, IC50, nM)	IC50 (IDO1 [2])
CN(C)P(=O)(CCSc1nonc1/C(=N/O)Nc1ccc(F)c(Br)c1)N(C)C [Example 139, 4-({2-[bis(dimethylamino)phosphoryl]ethyl}sulfanyl)-N-(3-bromo-4-fluorophenyl)-N′-hydroxy-1,2,5-oxadiazole-3-carboximidamide]	117 nM				551 nM
O=P(CCSc1nonc1/C(=N/O)Nc1ccc(F)c(Br)c1)(Oc1ccccc1)Oc1ccccc1 [Example 101, diphenyl [2-({4-[N-(3-bromo-4-fluorophenyl)-N′-hydroxycarbamimidoyl]-1,2,5-oxadiazol-3-yl}sulfanyl)ethyl]phosphonate]	764 nM				2240 nM
O=P(O)(CCCSc1nonc1/C(=N/O)Nc1ccc(F)c(Br)c1)Oc1ccccc1 [Example 118, phenyl hydrogen [3-({4-[N-(3-bromo-4-fluorophenyl)-N′-hydroxycarbamimidoyl]-1,2,5-oxadiazol-3-yl}sulfanyl)propyl]phosphonate]	34.1 nM				8150 nM
O/N=C(\Nc1ccc(F)c(Br)c1)c1nonc1O [Example 4, (Z)—N-(3-Bromo-4-fluorophenyl)-N′,4-dihydroxy-1,2,5-oxadiazole-3-carboximidamide]	> 10000 nM	3700 nM			
CCOC(=O)CNP(=O)(CCCSc1nonc1/C(=N/O)Nc1ccc(F)c(Br)c1)NCC(=O)OCC [Example 108, ethyl 4-[3-({4-[N-(3-bromo-4-fluorophenyl)-N′-hydroxycarbamimidoyl]-1,2,5-oxadiazol-3-yl}sulfanyl)propyl]-7-oxo-8-oxa-3,5-diaza-4-phosphadecan-1-oate 4-oxide]	131 nM	838 nM			
CC(=O)NCCSc1nonc1/C(=N/O)Nc1ccc(F)cc1 [Example 62, N-[2-({4-[N-(4-fluorophenyl)-N′-hydroxycarbamimidoyl]-1,2,5-oxadiazol-3-yl}sulfanyl)ethyl]acetamide]	1030 nM	1790 nM			
CC(=O)N[C@H](C)CSc1nonc1/C(=N/O)Nc1ccc(F)c(C#N)c1 [Example 179, N-[(1R)-2-({4-[N-(3-cyano-4-fluorophenyl)-N′-hydroxycarbamimidoyl]-1,2,5-oxadiazol-3-yl}sulfanyl)-1-methylethyl]acetamide]	218 nM	686 nM			
O=C(O)CCSc1nonc1/C(=N/O)Nc1ccc(F)c(Br)c1 [Example 14, (Z)-3-((4-(N-(3-bromo-4-fluorophenyl)-N′-hydroxycarbamimidoyl)-1,2,5-oxadiazol-3-yl)thio)propanoic acid]	48.2 nM	> 10000 nM			
O=c1c(NCCSc2nsnc2/C(=N/O)Nc2ccc(F)c(Br)c2)c(NC2CC2)c1=O [Example 211, N-(3-bromo-4-fluorophenyl)-4-[(2-{[2-(cyclopropylamino)-3,4-dioxocyclobut-1-en-1-yl]amino}ethyl)sulfanyl]-N′-hydroxy-1,2,5-thiadiazole-3-carboximidamide]	297 nM	1320 nM			
O=c1c(NCCSc2nsnc2/C(=N/O)Nc2ccc(F)c(Br)c2)c(NCC2CC2)c1=O [Example 210, N-(3-bromo-4-fluorophenyl)-4-{[2-({2-[(cyclopropylmethyl)amino]-3,4-dioxocyclobut-1-en-1-yl}amino)ethyl]sulfanyl}-N′-hydroxy-1,2,5-thiadiazole-3-carboximidamide]	166 nM	1410 nM			
CC(Sc1nonc1/C(=N/O)Nc1ccc(F)c(Br)c1)C(=O)O (stereo not drawn) [Example 16, (Z)-2-((4-(N-(3-bromo-4-fluorophenyl)-N′-hydroxycarbamimidoyl)-1,2,5-oxadiazol-3-yl)thio)propanoic acid]	149 nM	> 10000 nM			
CC(=O)NCCOc1nonc1/C(=N/O)Nc1ccc(F)c(Br)c1 [Example 5, N-(2-((4-(N-(3-bromo-4-fluorophenyl)-N′-hydroxycarbamimidoyl)-1,2,5-oxadiazol-3-yl)oxy)ethyl)acetamide]	47.6 nM		94 nM		
O=S1(=O)NC[C@H](CSc2nonc2/C(=N/O)Nc2ccc(F)c(Br)c2)N1 [Example 33, (R)—N-(3-bromo-4-fluorophenyl)-4-(((1,1-dioxido-1,2,5-thiadiazolidin-3-yl)methyl)thio)-N′-hydroxy-1,2,5-oxadiazole-3-carboximidamide]	53.5 nM		26.3 nM		
O=P(CCSc1nonc1/C(=N/O)Nc1ccc(F)c(Br)c1)(NCc1ccccc1)NCc1ccccc1 [Example 116, 4-({2-[bis(benzylamino)phosphoryl]ethyl}sulfanyl)-N-(3-bromo-4-fluorophenyl)-N′-hydroxy-1,2,5-oxadiazole-3-carboximidamide]	154 nM	706 nM			
O=C(CSc1nonc1/C(=N/O)Nc1ccc(F)c(Br)c1)N1CC[C@H](O)[C@@H](O)C1 [Example 196, N-(3-bromo-4-fluorophenyl)-4-((2-((3S,4S)-3,4-dihydroxypiperidin-1-yl)-2-oxoethyl)thio)-N′-hydroxy-1,2,5-oxadiazole-3-carboximidamide]	62.3 nM		132 nM		

Further lines, with some results ahead:

IC50 (IDO1 [1]; [4])	IC50 (IDO1 [2]; [5])	IC50 (IDO1 [3])	IC50 (IDO1 [1]; IDO1 Enzyme Assay, IC50, nM)	SMILES	IC50 (IDO1 [2])
706 nM	2430 nM			CC(C)OC(=O)OCOP(=O)(CCCSc1nonc1/C(=N/O)Nc1ccc(F)c(Br)c1)OCOC(=O)OC(C)C [Example 109, bis({[(1-methylethoxy)carbonyl]oxy}methyl) [3-({4-[N-(3-bromo-4-fluorophenyl)-N′-hydroxycarbamimidoyl]-1,2,5-oxadiazol-3-yl}sulfanyl)propyl]phosphonate]	
44.9 nM		15.3 nM		C[C@H](CO)NC(=O)CSc1nonc1/C(=N/O)Nc1ccc(F)c(Br)c1 [Example 197, (R)-2-((4-(N-(3-bromo-4-fluorophenyl)-N′-hydroxycarbamimidoyl)-1,2,5-oxadiazol-3-yl)thio)-N-(1-hydroxypropan-2-yl)acetamide]	
35.7 nM	1220 nM			COC(=O)CSc1nonc1/C(=N/O)Nc1ccc(F)c(Br)c1 [Example 22, Methyl (Z)-2-((4-(N-(3-bromo-4-fluorophenyl)-N′-hydroxycarbamimidoyl)-1,2,5-oxadiazol-3-yl)thio)acetate]	
		111 nM	39.3 nM	O=C(CSc1nonc1/C(=N/O)Nc1ccc(F)c(Br)c1)NCC(O)CN1CCOCC1 (single isomer, unassigned) [Example 206, 2-((4-(N-(3-bromo-4-fluorophenyl)-N′-hydroxycarbamimidoyl)-1,2,5-oxadiazol-3-yl)thio)-N-(2-hydroxy-3-morpholinopropyl)acetamide]	
22.4 nM		26.8 nM		C[C@@H](O)CNC(=O)CSc1nonc1/C(=N/O)Nc1ccc(F)c(Br)c1 [Example 201, (R)-2-((4-(N-(3-bromo-4-fluorophenyl)-N′-hydroxycarbamimidoyl)-1,2,5-oxadiazol-3-yl)thio)-N-(2-hydroxypropyl)acetamide]	
23 nM	1140 nM			O=c1c(NCCSc2nonc2/C(=N/O)Nc2ccc(F)c(Br)c2)c(NCC(O)CO)c1=O (stereo not drawn) [Example 75, N-(3-bromo-4-fluorophenyl)-4-{[2-({2-[(2,3-dihydroxypropyl)amino]-3,4-dioxocyclobut-1-en-1-yl}amino)ethyl]sulfanyl}-N′-hydroxy-1,2,5-oxadiazole-3-carboximidamide]	
57.8 nM		508 nM		CNS(=O)(=O)NC(=O)CSc1nonc1/C(=N/O)Nc1ccc(F)c(Br)c1 [Example 199, 2-((4-(N-(3-bromo-4-fluorophenyl)-N′-hydroxycarbamimidoyl)-1,2,5-oxadiazol-3-yl)thio)-N-(N-methylsulfamoyl)acetamide]	
	740 nM			CC(C)(C)OC(=O)NCCSc1nonc1/C(=N/O)Nc1ccc(F)c(Br)c1 [Example 1, Tert-butyl (Z)-(2-((4-(N-(3-bromo-4-fluorophenyl)-N′-hydroxycarbamimidoyl)-1,2,5-oxadiazol-3-yl)thio)ethyl)carbamate]	
